Laboratory results as given in publication PMC3923730 (Journal of Translational Medicine, 2014).
Values joined by “and” are separate entries in the source; they are usually repeats but may differ in a detail not shown here. Equal values may be shown once.

Assays:
[1] = Pharmacokinetics in rats (plasma); type: in vivo; conditions: rat plasma
Experimental: TRO40303 was administered by intravenous (i.v.) bolus to healthy rats at doses of 0.3, 1, 3 and 10 mg/kg in IL30 under isoflurane gas anaesthesia. A maximum of 0.25 mL of blood was collected into lithium heparin tubes at 5, 15 and 30 min, 1 h, 2 h, 4 h, 8 h and 24 h after drug administration (3 rats per time point). The blood samples were cooled on ice and plasma samples were prepared within 60 min of sampling by centrifugation at 1500 g at 4 °C for 10 min and stored at –20°C until analysis. For heart level measurements, TRO40303 was administrated i.v. to rats undergoing the myocardial infarction procedure at the dose of 1 mg/kg in IL30 either 10 min before CAO or 10 min before CAR. Five min after CAR, rats were anesthetised and sacrificed, hearts were isolated and washed with saline. Tissue from AAR was separated from the remainder of the left ventricle; samples were frozen and stored at –20°C until analysis. After TRO40303 plasma concentration analysis, TRO40303 plasma AUC(0-∞) (the area under the curve extrapolated from time zero to time infinity), was calculated using Kinetica™, version 4.4.1 (Thermo Electron Corporation, Philadelphia, PA 19103, USA). The results were analyzed in comparison with previous pharmacokinetic data obtained with TRO40303 formulated in HPBCD at 2.5 mg/kg.
Thawed preclinical samples were extracted with acetonitrile, centrifuged, purified on SPEC C2 cartridge (Varian) for the heart samples and analysed along with calibration standards. Analysis was carried out on an Alliance 2695 (Waters) system interfaced to an API Quattro Micro (Waters) MS detector. Calculations were carried out with Waters QuanLynx software.

[2] = tested on: isolated rat heart; test: Free radical (ESR) and lipid peroxidation (MDA-TBA) measurements in isolated rat heart; conditions: 1 μM
Experimental: To evaluate the effect of 1 μM TRO40303 on ischemia-reperfusion-induced ascorbate release and tissue depletion, effluents from control and treated hearts undergoing the perfusion protocol described above (n = 6/group) were collected for 15 s, 1 min following onset of reflow, and hearts were frozen in liquid nitrogen at the end of the reperfusion period. Ascorbate content in effluents and tissue homogenates was then assessed by quantifying the ascorbyl free radical (AFR)-dimethyl sulfoxide (DMSO) electron spin resonance (ESR) doublet as previously described, DMSO being used to stabilize the ascorbate free radical.
To investigate whether TRO40303 could interfere with ischemia-reperfusion-triggered ROS production, hearts (n = 6) undergoing the perfusion protocol described above received the spin trap nitrone DMPO (25 mM) during the first 5 min of reperfusion. A 15-s collection of the effluents was performed pre-ischemically on three additional hearts from both groups, and 3 min after onset of reflow for the 6 ischemic/reperfused hearts. Samples were immediately stored in liquid nitrogen. The free radical content of DMPO-supplemented from TRO40303-treated and control effluents was determined by ESR in glass capillaries. The ESR signal was acquired 1.5 min after thawing of the sample using the same parameters as for ascorbate except: modulation amplitude 0.0313 mT, receiver gain 5 × 10^4 and sweep rate for each scan 0.167 mT/s.
Lipid peroxidation in heart tissue at the end of reperfusion was evaluated using the malondialdehyde-thiobarbituric acid assay (MDA-TBA) (n = 8/group) as previously described.

[3] = Pharmacokinetic based allometry to human; conditions: allometric scaling, body weights 50-115 kg, 95% CI
Experimental: Pharmacokinetic based allometry (natural logarithm (ln) transformation) was performed using available pharmacokinetic data (not shown) from various animal species and was used to estimate clearance (CL) and the initial volume of distribution (V1 = Dose/C0; C0 defined as the extrapolated plasma concentration at time zero) in human. Animals had received a single i.v. bolus dose of TRO40303 administered under lipid-based formulations (Intralipid® and liposomes) in rats and pigs or under cremophor EL®/ethanol/saline formulation in dogs and monkeys. The pharmacokinetic parameters were assessed from the mean (for rodents) or individual TRO40303 plasma concentration versus time profiles using a non-compartmental approach “Log Linear Method” (Kinetica™, version 4.4.1). The ln of the CL and the ln of V1 were each plotted against the ln of the animals’ body weight. Finally, using this relationship, the human CL and V1 were estimated based on the human body weight ranging from 50 to 115 kg.

[4] = tested on: healthy male and post-menopausal female subjects; test: Phase I trial safety and tolerability; type: in vivo; conditions: human
Experimental: A randomized, double-blind, placebo controlled study was performed to investigate the safety, tolerability and pharmacokinetics of single i.v. ascending doses of TRO40303 in healthy male and post-menopausal female subjects. The choice of the dose and flow rate escalation process is explained in the Result section. Seventy-two healthy volunteers were randomized, with 18 receiving a placebo and 54 an active liposomal formulation containing 20 mg/mL TRO40303 at final doses ranging from 0.5, 1, 2, 3.5, 6, 10 to 13 mg/kg with escalating flow rates from 0.04 mL/min to 35 mL/min. Within each group, 3 or 6 subjects received TRO40303 and 1 or 2 subjects received the same volume of placebo. The sample size was based on the number of doses and flow rates to be investigated. The 6 verum/2 placebo ratio per group is widely used in single ascending dose studies and provides adequate safety and pharmacokinetic information. The 3 verum/1 placebo ratio used in the last groups was chosen only to explore additional flow rates at previously studied doses.
Continuous recording of adverse events, continuous blood pressure monitoring for 2 hours after dosing and 12-lead electrocardiogram (ECG) at pre-dose, 15 min, 1 h, 4 h, 8 h, 24 h, 72 h and 96 h after end of infusion were performed. Vital signs, physical examination, haematology, blood biochemistry, urinalysis and haemostasis were performed before the study, at specific times after dosing and at the “end of study visit”, 7 days after administration. Blood biochemistry analysis included ASAT, ALAT, alkaline phosphatase, triglycerides, total cholesterol, HDL-cholesterol and LDL-cholesterol.

[5] = 0.5 mg/kg, 0.08 mL/min, back pain
[6] = 2 mg/kg, 0.64 mL/min, injection site haematoma
[7] = 3.5 mg/kg, 5 mL/min, presyncope
[8] = 6 mg/kg, 7.5 mL/min, infusion site inflammation
[9] = 6 mg/kg, 23 mL/min, vision blurred
[10] = single i.v. 0.5-13 mg/kg, flow rates 0.04-35 mL/min

## CC(C)CCC[C@@H](C)[C@H]1CC[C@H]2[C@@H]3CC/C(=N\O)[C@](C)(CCCO)[C@H]3CC[C@]12C [TRO40303, 3,5-seco-4-nor-cholestan-5-one oxime-3-ol]
[1]; 3 mg/kg i.v. in IL30, satellite animals
  AUC(0-∞): 14.0 µg·h/mL
[1]; 3 mg/kg i.v. in IL30, satellite animals, 3 mg/kg
  C5min: 57.9 μM and 23.5 μg/mL
[1]; 10 mg/kg i.v. in IL30, satellite animals
  AUC(0-∞): 44.8 µg·h/mL
[1]; 10 mg/kg i.v. in IL30, satellite animals, 10 mg/kg
  C5min: 130 μM and 52.8 μg/mL
[2]; 25 mM DMPO at reperfusion, 3 min after onset of reflow, p < 0.05, n = 6
  decrease of DMPO-OH ESR signal intensity in coronary effluents: 69%
[2]; early reperfusion (1st min), p < 0.001, n = 6
  AFR-DMSO release in the coronary effluents versus untreated hearts: –57%
[2]; end of reflow, p < 0.05, n = 6
  tissue AFR-DMSO versus untreated hearts: +24%
[2]; heart tissue at end of reperfusion, p < 0.01, n = 8
  MDA-TBA formation compared to vehicle-perfused hearts: –65%
[3]
  predicted human CL: 0.053 to 0.238 L/h/kg
  predicted human V1: 0.089 to 0.741 L/kg
[4]; 0.5 mg/kg, 0.08 mL/min
  Emergent AEs: Description: 2 episodes of back pain
[4]; [5]
  Emergent AEs: Intensity: 1 Moderate and 1 Mild
  Emergent AEs: Relationship: Excluded
[4]; 2 mg/kg, 0.64 mL/min
  Emergent AEs: Description: 1 episode of injection site haematoma
[4]; [6]
  Emergent AEs: Intensity: Moderate
  Emergent AEs: Relationship: Excluded
[4]; 3.5 mg/kg, 5 mL/min
  Emergent AEs: Description: 1 episode of presyncope
[4]; [7]
  Emergent AEs: Intensity: Moderate
  Emergent AEs: Relationship: Unlikely
[4]; 6 mg/kg, 7.5 mL/min
  Emergent AEs: Description: 1 episode of infusion site inflammation
[4]; [8]
  Emergent AEs: Intensity: Moderate
  Emergent AEs: Relationship: Probable
[4]; 6 mg/kg, 23 mL/min
  Emergent AEs: Description: 1 episode of vision blurred
[4]; [9]
  Emergent AEs: Intensity: Moderate
  Emergent AEs: Relationship: Possible
[4]; any time, any dose group
  changes in vital signs, ECG parameters, laboratory tests or physical examinations: No relevant changes
[4]; [10]
  clinical tolerability: well tolerated clinically
  serious adverse events: no serious adverse events
